The subject of one test is HMG-CoA reductase. The experiment in a line: HepG2 cell culture model - HMG-CoA reductase suppression assay. Type of test: cell-based. The settings on record: HepG2 cells, 4 hours of incubation at 37°, decrease in specific activity vs. vehicle controls. As to the method: HepG2 Cell Culture Model - HMG-CoA Reductase Suppression Assay
HMG-CoA reductase suppression in HepG2 cells was conducted by growing cells in RPMT-1640 plus 10% FBS on 100 mm plates, and when cells reached approximately 75% confluency, inducing with LDS (as described above) for 16 hours prior to assays. Compounds were added using dimethylsulfoxide vehicle (0.5% v/v, final) and after 4 hours of incubation at 37°, cells were harvested by scraping. Cell pellets were rinsed and lysed by sonication in 1.7 ml cold 50 mM imidazole-HCl, pH 7.2, 50 mM NaCl, 10 mM EDTA, 10 mM EGTA, 5mM DTT, and 40 µM leupeptin). Lysates were centrifuged at 150 x g and the supernatant was centrifuged at 100,000 x g in a Beckman airfuge to isolate the post-nuclear total membrane fraction. The membranes were resuspended in 50 mM imidazole-HCl, pH 7.2, 250 mM NaCl, 5 mM DTT, and 20 µM leupeptin and used for the assay of HMG-CoA reductase activity by the radiochemical procedure as described previously by Parker et al., J. Biol. Chem., 264: 4877-4887, (1989). Values were normalized for protein content by the Lowry method as cited previously (ibid). HMG-CoA reductase percent suppression was calculated as the decrease in specific activity of HMG-CoA reductase for treated cells vs. controls receiving vehicle. Averages of duplicate cell determinations assayed in duplicate were taken.

The test system of test [1] is Normocholesterolemic Chickens. The experiment in a line: In vivo evaluation in normocholesterolemic chickens - serum cholesterol pools. The conditions noted are these: 6-week old male chickens, 50 ppm in diet for four weeks; for Total Cholesterol: serum. As to the method: (§1) In Vivo Biological Evaluation in Normocholesterolemic Chickens
(§2) Newborn male chicks (10 for each group) were raised on a standard corn-soybean based control diet for two weeks and then switched to either control or experimental diets for four weeks. Drug treatment consisted of the addition of test compounds to the corn-soybean-based diet at a concentration of 50 ppm. At the end of the feeding period, all the birds were fasted (36 hours) and refed (48 hours) to induce cholesterolgenic enzymes prior to sacrifice. The specific activity of HMGR, total serum cholesterol levels, LDL cholesterol and HDL cholesterol pools were determined (Table 6).

Test [2] has as its system cholesterol biosynthesis in HepG2 cells. The experiment in a line: HepG2 cell culture model - 14C-acetate incorporation assay (cholesterol synthesis). The test is classed as cell-based. The conditions noted are these: 3-4 hours incubation, 2-14C-acetate incorporation into digitonin-precipitable sterols, vs. vehicle controls; for inhibition at 10 µM: Homo sapiens, read-out: Sterol Biosynthesis % Inhibition 10µM. The procedure:
HepG2 Cell Culture Model - 14C-Acetate Incorporation Assay
After 16 hours in LDS containing media, test compounds were added in dimethylsulfoxide vehicle (0.5% v/v final conc.) for an incubation period of 3-4 hours. Cholesterol synthesis was then directly determined by 2-14C-acetate (1.8 mCi/mmol, 0.5 µCi/ml) incorporation for 30 to 60 minutes (previously shown to be time-linear) into total digitonin-precipitable sterols. […] Percent inhibition was calculated from the average of duplicates vs. triplicate vehicle controls conducted simultaneously.

A further test concerns HMGR. The test is described as follows: In vivo evaluation in normocholesterolemic chickens - specific activity of HMGR. The settings on record: 6-week old male chickens, 50 ppm in diet for four weeks. As to the method:
as §1, §2

By inhibition is commonly meant the drop in the measured response relative to a control, in per cent. Take `CC(C)=CCC/C(C)=C/CC/C(C)=C/CCCOc1c(C)cc(O)cc1C` [Example 12, 3,5-Dimethyl-4-[(5,9,13-Trimethyl-4(E), 8(E), 12-tetradecatrienyl)oxy] phenol]: in the test with HMG-CoA reductase, the “HMG-CoA Reductase Suppression % 10µM” value turned out to be 35%. In test [1], the “HDL Cholesterol” value is 70 % of Control, the “LDL Cholesterol” value is on record as 50 % of Control and the “Total Cholesterol” value is 67 % of Control. Further, in test [2], the inhibition at 10 µM is 70%.
Take `CC(C)=CCC/C(C)=C/CC/C(C)=C/CCCOc1ccc(NS(C)(=O)=O)cc1` [Example 25, N-[4-[(5,9,13-Trimethyl-4(E), 8(E),12-tetradecatrienyl)oxy]phenyl]methanesulfonamide]: the “HMG-CoA Reductase Suppression % 10µM” value in the test on HMG-CoA reductase is on record as 9%. Besides, in test [1], the “HDL Cholesterol” value is on record as 91 % of Control, the “LDL Cholesterol” value is 45 % of Control and the “Total Cholesterol” value is 72 % of Control. For the same molecule, the HMGR in the test with HMGR was 86 % of Control. In addition, the inhibition at 10 µM in test [2] was 77%.
In the case of γ-tocotrienol [reference compound], the “HMG-CoA Reductase Suppression % 10µM” value with HMG-CoA reductase is 63%. Further, in test [1], the “HDL Cholesterol” value is on record as 91 % of Control, the “LDL Cholesterol” value was 44 % of Control and the “Total Cholesterol” value is reported as 75 % of Control. Further, in the test with HMGR, the HMGR is listed as 82 % of Control. Further, the “Sterol Biosynthesis % Inhibition 10µM” value in test [2] is reported as 69%.

For the origin of these results see EP0571928A1, “Acyclic Tocotrienol analogs in the treatment of hypercholesterolemia and hyperlipidemia” (Bristol-Myers Squibb Company, priority 1992, dated 1993).
